Test results from patent publication US12187728B2 (Raze Therapeutics, Inc., priority 2015, dated 2025).

Target: T1, Human MTHFD2 (Homo sapiens, UniProt P13995)
T1 construct: residues 36-350 in Uniport ID P13995; His6 (N); made in house; host or cells: E. coli
T1 sequence (P13995 36-350): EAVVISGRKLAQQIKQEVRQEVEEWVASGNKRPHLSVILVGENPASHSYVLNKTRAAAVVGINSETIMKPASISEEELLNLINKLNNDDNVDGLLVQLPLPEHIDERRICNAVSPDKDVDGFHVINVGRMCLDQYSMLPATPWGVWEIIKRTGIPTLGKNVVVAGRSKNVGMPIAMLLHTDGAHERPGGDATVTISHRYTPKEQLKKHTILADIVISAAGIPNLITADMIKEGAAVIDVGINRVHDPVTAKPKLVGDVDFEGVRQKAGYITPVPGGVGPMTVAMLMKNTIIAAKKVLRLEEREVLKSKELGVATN
Experiment: MTHFD2 Activity Assay (dehydrogenase activity, diaphorase/resazurin coupled fluorescence)
Format: biochemical
Details: inhibitory activity (IC50 and/or binding constant); 0.2 nM MTHFD2, 11 concentrations
Source text: Human MTHFD2 (residues 36-350 in Uniport ID P13995) was expressed as an N-terminal His6 tagged protein and purified in E. coli using nickel capture followed by size-exclusion chromatography.
MTHFD2 dehydrogenase activity oxidizes methylene tetrahyrofolate to methenyl-tetrahydrofolate with the concomitant reduction of NAD to NADH. MTHFD2 dehydrogenase activity was followed by coupling the generation of NADH to diaphorase catalyzed […] of resazurin to fluorescent resorufin. Briefly, control (DMSO) or compound was incubated with 0.2 nM MTHFD2 for 15 minutes in 10.5 μl assay buffer containing 100 mM Hepes, pH 8.0, 5 mM MgCl2, 5 mM KH2PO4, 0.05% BSA, 0.01% Tween-20 in a 384 well Griener, low volume, black plate. 10 μl of substrate buffer containing 70 μM CH2-THF, 1 mM NAD^+, 100 μM Resazurin and 0.42 mg/ml diaphorase was then added to initiate the reaction and the reaction plate was incubated for 30 minutes. 5 μl of 250 mM EDTA was then added to each well to stop the reaction and MTHFD2 activity was quantified by measuring resorufin fluorescence emission at 598 nm following excitation at 525 nm. Activity in positive control wells containing the complete reaction mixture and DMSO alone was set to 100% while activity in negative control wells with the complete reaction mix without MTHFD2 was set to 0%. 11 concentrations of each compound were tested and the fluorescent data at each concentration was normalized to the positive and negative controls and represented as % inhibition. Median inhibitory concentration (IC50) was calculated by fitting % inhibition at each concentration to a 4 parameter logistic fit equation using Graphpad Prizm.
The compound numbers correspond to the compound numbers in Table A (i.e., the example numbers).

Row | IC50 [nM] | SMILES
1 | 10 to 1000 | Cn1c(N[C@H]2CCC[C@H](C(=O)O)C2)nc2c1c(=O)n(Cc1ccc(Cl)c(Cl)c1)c(=O)n2C (single isomer, unassigned) [Example 186, (1S,3S)-3-(1-(3,4-dichlorobenzyl)-3,7-dimethyl-2,6-dioxo-2,3,6,7-tetrahydro-1H-purin-8-ylamino)cyclohexanecarboxylic or (1R,3R)-3-(1-(3,4-dichlorobenzyl)-3,7-dimethyl-2,6-dioxo-2,3,6,7-tetrahydro-1H-purin-8-ylamino)cyclohexanecarboxylic acid]
2 | 10 to 1000 | Cn1c(N[C@@H]2CCC[C@H](C(=O)O)C2)nc2c1c(=O)n(Cc1ccc(Cl)c(Cl)c1)c(=O)n2C (single isomer, unassigned) [Example 187, (1S,3R)-3-(1-(3,4-dichlorobenzyl)-3,7-dimethyl-2,6-dioxo-2,3,6,7-tetrahydro-1H-purin-8-ylamino)cyclohexanecarboxylic acid or (1R,3S)-3-(1-(3,4-dichlorobenzyl)-3,7-dimethyl-2,6-dioxo-2,3,6,7-tetrahydro-1H-purin-8-ylamino)cyclohexanecarboxylic acid]
3 | 10 to 1000 | Cn1c(N[C@H]2CCC[C@H](C(=O)O)C2)nc2c1c(=O)n(Cc1ccc(Cl)c(Cl)c1)c(=O)n2C (single isomer, unassigned) [Example 209, (1S,3S)-3-(1-(3,4-dichlorobenzyl)-3,7-dimethyl-2,6-dioxo-2,3,6,7-tetrahydro-1H-purin-8-ylamino)cyclohexanecarboxylic or (1R,3R)-3-(1-(3,4-dichlorobenzyl)-3,7-dimethyl-2,6-dioxo-2,3,6,7-tetrahydro-1H-purin-8-ylamino)cyclohexanecarboxylic acid]
4 | 1000 to 5000 | Cn1c(N[C@H]2CCC(=O)NC2)nc2c1c(=O)n(Cc1cc3ccccc3[nH]1)c(=O)n2C (single isomer, unassigned) [Example 228, (S)-1-((1H-indol-2-yl)methyl)-3,7-dimethyl-8-(6-oxopiperidin-3-ylamino)-1H-purine-2,6(3H,7H)-dione or (R)-1-((1H-indol-2-yl)methyl)-3,7-dimethyl-8-(6-oxopiperidin-3-ylamino)-1H-purine-2,6(3H,7H)-dione]
5 | 10 to 1000 | Cn1c(Nc2ccnc([C@@H]3C[C@H]3C(=O)O)c2)nc2c1c(=O)n(Cc1ccc(Cl)c(Cl)c1)c(=O)n2C (single isomer, unassigned) [Example 300, (1R,2R)-2-(4-((1-(3,4-dichlorobenzyl)-3,7-dimethyl-2,6-dioxo-2,3,6,7-tetrahydro-1H-purin-8-yl)amino)pyridin-2-yl)cyclopropanecarboxylic acid or (1S,2S)-2-(4-((1-(3,4-dichlorobenzyl)-3,7-dimethyl-2,6-dioxo-2,3,6,7-tetrahydro-1H-purin-8-yl)amino)pyridin-2-yl)cyclopropanecarboxylic acid]
6 | 10 to 1000 | Cn1c(Nc2ccnc([C@H]3C[C@@H]3C(=O)O)c2)nc2c1c(=O)n(Cc1ccc(Cl)c(Cl)c1)c(=O)n2C (single isomer, unassigned) [Example 301, (1S,2S)-2-(4-((1-(3,4-dichlorobenzyl)-3,7-dimethyl-2,6-dioxo-2,3,6,7-tetrahydro-1H-purin-8-yl)amino)pyridin-2-yl)cyclopropanecarboxylic acid or (1R,2R)-2-(4-((1-(3,4-dichlorobenzyl)-3,7-dimethyl-2,6-dioxo-2,3,6,7-tetrahydro-1H-purin-8-yl)amino)pyridin-2-yl)cyclopropanecarboxylic acid]
7 | 10 to 1000 | Cn1c(Nc2ccnc([C@@H]3C[C@H]3C(=O)O)c2)nc2c1c(=O)n(Cc1cc3c(Cl)cccc3[nH]1)c(=O)n2C (single isomer, unassigned) [Example 322, (1R,2R)-2-(4-((1-((4-chloro-1H-indol-2-yl)methyl)-3,7-dimethyl-2,6-dioxo-2,3,6,7-tetrahydro-1H-purin-8-yl)amino)pyridin-2-yl)cyclopropanecarboxylic acid or (1S,2S)-2-(4-((1-((4-chloro-1H-indol-2-yl)methyl)-3,7-dimethyl-2,6-dioxo-2,3,6,7-tetrahydro-1H-purin-8-yl)amino)pyridin-2-yl)cyclopropanecarboxylic acid]
8 | 1000 to 5000 | Cn1c(Nc2ccnc([C@@H]3C[C@H]3CO)c2)nc2c1c(=O)n(Cc1ccc(Cl)c(Cl)c1)c(=O)n2C (single isomer, unassigned) [Example 337, 1-(3,4-dichlorobenzyl)-8-((2-((1R,2R)-2-(hydroxymethyl)cyclopropyl)pyridin-4-yl)amino)-3,7-dimethyl-1H-purine-2,6(3H,7H)-dione or 1-(3,4-dichlorobenzyl)-8-((2-((1S,2S)-2-(hydroxymethyl)cyclopropyl)pyridin-4-yl)amino)-3,7-dimethyl-1H-purine-2,6(3H,7H)-dione]

More lines, now with the values behind:

Row | SMILES | IC50 [nM]
9 | Cn1c(N[C@H]2CCC[C@H](O)C2)nc2c1c(=O)n(Cc1ccc(Cl)c(Cl)c1)c(=O)n2C (single isomer, unassigned) [Example 81, 1-(3,4-dichlorobenzyl)-8-((1S,3S)-3-hydroxycyclohexylamino)-3,7-dimethyl-1H-purine-2,6(3H,7H)-dione or 1-(3,4-dichlorobenzyl)-8-((1R,3R)-3-hydroxycyclohexylamino)-3,7-dimethyl-1H-purine-2,6(3H,7H)-dione] | 10 to 1000
10 | Cn1c(N[C@H]2CCC(=O)NC2)nc2c1c(=O)n(Cc1ccc(Cl)c(Cl)c1)c(=O)n2C (single isomer, unassigned) [Example 82, (S)-1-(3,4-dichlorobenzyl)-3,7-dimethyl-8-(6-oxopiperidin-3-ylamino)-1H-purine-2,6(3H,7H)-dione or (R)-1-(3,4-dichlorobenzyl)-3,7-dimethyl-8-(6-oxopiperidin-3-ylamino)-1H-purine-2,6(3H,7H)-dione] | 10 to 1000
11 | Cn1c(N[C@H]2CCC(=O)NC2)nc2c1c(=O)n(Cc1ccc(Cl)c(Cl)c1)c(=O)n2C (single isomer, unassigned) [Example 83, (5)-1-(3,4-dichlorobenzyl)-3,7-dimethyl-8-(6-oxopiperidin-3-ylamino)-1H-purine-2,6(3H,7H)-dione or (R)-1-(3,4-dichlorobenzyl)-3,7-dimethyl-8-(6-oxopiperidin-3-ylamino)-1H-purine-2,6(3H,7H)-dione] | 10 to 1000
12 | Cn1c(N[C@H]2CC[C@@H](O)C2)nc2c1c(=O)n(Cc1ccc(C(F)(F)F)cc1)c(=O)n2C (single isomer, unassigned) [Example 133, 8-((1S,3R)-3-hydroxycyclopentylamino)-3,7-dimethyl-1-(4-(trifluoromethyl)benzyl)-1H-purine-2,6(3H,7H)-dione or 8-((1R,3S)-3-hydroxycyclopentylamino)-3,7-dimethyl-1-(4-(trifluoromethyl)benzyl)-1H-purine-2,6(3H,7H)-dione] | 1000 to 5000
13 | Cn1c(N[C@@H]2CC[C@@H](O)C2)nc2c1c(=O)n(Cc1ccc(C(F)(F)F)cc1)c(=O)n2C (single isomer, unassigned) [Example 144, 8-((1R,3R)-3-hydroxycyclopentylamino)-3,7-dimethyl-1-(4-(trifluoromethyl)benzyl)-1H-purine-2,6(3H,7H)-dione or 8-((1S,3S)-3-hydroxycyclopentylamino)-3,7-dimethyl-1-(4-(trifluoromethyl)benzyl)-1H-purine-2,6(3H,7H)-dione] | 1000 to 5000
14 | Cn1c(N[C@H]2CC[C@@H](O)C2)nc2c1c(=O)n(Cc1ccc(C(F)(F)F)cc1)c(=O)n2C (single isomer, unassigned) [Example 156, 8-((1S,3R)-3-hydroxycyclopentylamino)-3,7-dimethyl-1-(4-(trifluoromethyl)benzyl)-1H-purine-2,6(3H,7H)-dione or 8-((1R,3S)-3-hydroxycyclopentylamino)-3,7-dimethyl-1-(4-(trifluoromethyl)benzyl)-1H-purine-2,6(3H,7H)-dione] | 1000 to 5000
15 | Cn1c(N[C@@H]2CCC[C@H](C(=O)O)C2)nc2c1c(=O)n(Cc1ccc(Cl)c(Cl)c1)c(=O)n2C (single isomer, unassigned) [Example 184, (1S,3R)-3-(1-(3,4-dichlorobenzyl)-3,7-dimethyl-2,6-dioxo-2,3,6,7-tetrahydro-1H-purin-8-ylamino)cyclohexanecarboxylic acid or (1R,3S)-3-(1-(3,4-dichlorobenzyl)-3,7-dimethyl-2,6-dioxo-2,3,6,7-tetrahydro-1H-purin-8-ylamino)cyclohexanecarboxylic acid] | 10 to 1000
